Counter-ions that a name gives are not always drawn.

System in one data set: not given
Test: not given
Conditions: not given
Regarding `CCC1=C(C(N)=O)C(c2ccc([N+](=O)[O-])cc2)C(C(=O)NCCCN2CCC3(CC2)C(=O)NCN3c2ccccc2)=C(CC)N1` (stereo not drawn) (as salt: hydrochloride) (hydrate or solvate) [Example 105, 5-Carboxamido-2,6-diethyl-1,4-dihydro-4-(4-nitrophenyl)-3-{N-[3-(1-phenyl-4-oxo-1,3,8-triazaspiro[4.3]decan-8-yl)propyl]}carboxamidopyridine hydrochloride hydrate], the melting point is 187 °C (dec.). The same measure, in the same setting: in the case of `CCC1=C(C(N)=O)C(c2ccc([N+](=O)[O-])cc2)C(C(=O)NCCCN2CCC(C)(c3ccccc3)CC2)=C(CC)N1` (stereo not drawn) (as salt: hydrochloride) (hydrate or solvate) [Example 106, 5-Carboxamido-2,6-diethyl-1,4-dihydro-3-{N-[3-(4-Methyl-4-phenylpiperidin-1-yl)propyl]}carboxamido-4-(4-nitrophenyl)pyridine hydrochloride hydrate] it was 166 °C (dec.). `CC1=C(C#N)C(c2ccc([N+](=O)[O-])cc2)C(C(=O)NCCCN2CCC(c3ccccc3)(c3ccccc3)CC2)=C(C)N1` (stereo not drawn) (as salt: hydrochloride) [Example 37]: the melting point is 252 °C (dec.). `COc1cc2c(cc1OC)CN(CCCNC(=O)C1=C(C)NC(C)=C(C(N)=O)C1c1ccc([N+](=O)[O-])cc1)CC2` (stereo not drawn) (as salt: hydrochloride) [Example 58, 5-Carboxamido-1,4-dihydro-3-{N-[3-(1,2,3,4-tetrahydro-6,7-dimethoxyisoquinolin-2-yl)propyl]}carboxamido-2,6-dimethyl-4-(4-nitrophenyl)pyridine hydrochloride] came in with a melting point of 180 to 181 °C. Regarding `CCC1=C(C(=O)NC2CCN(Cc3ccccc3)CC2)C(c2ccc([N+](=O)[O-])cc2)C(C(=O)OC)=C(C)N1` (stereo not drawn) (as salt: hydrochloride) [Example 75, 2-Ethyl-1,4-dihydro-5-methoxycarbonyl-6-methyl-4-(4-nitro)phenyl-3-(N-(N-phenylmethyl)piperidin-4-yl)carboxamidopyridine hydrochloride], the melting point was 221 to 224 °C (dec.).

Consider `CCC1=C(C(=O)NCCCN2CCC(c3ccccc3)(c3ccccc3)CC2)C(c2ccc([N+](=O)[O-])cc2)C(C(N)=O)=C(C)N1` (stereo not drawn) (as salt: hydrochloride) [Example 81, 5-carboxamido-2-ethyl-1,4-dihydro-6-methyl-4-(4-nitro)phenyl-3-(N-(3-(4,4-diphenylpiperidin-1-yl)propyl))carboxamidopyridine hydrochloride], for which the melting point was 243 to 248 °C (dec.). In the case of `COc1ccc(C2(c3ccccc3)CCN(CCCNC(=O)C3=C(C)NC(C)=C(C(N)=O)C3c3ccc([N+](=O)[O-])cc3)CC2)cc1` (stereo not drawn) (as salt: hydrochloride) [Example 98, 5-Carboxamido-1,4-dihydro-3-{N-[3-(4-(4-methoxyphenyl)-4-phenylpiperidin-1-yl)propyl]}carboxamido-2,6-dimethyl-4-(4-nitrophenyl)pyridine hydrochloride], the melting point is 185 °C (dec.). The same measure, in the same setting: in the case of `CCC1=C(C(N)=O)C(c2ccc([N+](=O)[O-])cc2)C(C(=O)NCCCN2CCC(c3ccc(OC)cc3)(c3ccc(OC)cc3)CC2)=C(CC)N1` (stereo not drawn) (as salt: hydrochloride) [Example 103, 5-Carboxamido-2,6-diethyl-1,4-dihydro-3-{N-[3-(4,4-bis-(4-methoxyphenyl)piperidin-1-yl)propyl]}carboxamido}-4-(4-nitrophenyl)pyridine hydrochloride] it was 175 °C (dec.). Same read-out and setting: the result for `CCC1=C(C(=O)NCCCN2CCC(c3ccccc3)(c3ccccc3)CC2)C(c2ccc([N+](=O)[O-])cc2)C(C(=O)NC)=C(COCCN=[N+]=[N-])N1` (stereo not drawn) (as salt: hydrochloride) [Example 151, 2-((2-Azidoethyl)oxy)methyl-6-ethyl-1,4-dihydro-3-(N-methyl)carboxamido-4-(4-nitro)phenyl-5-(N-(3-(4,4-diphenylpiperidin-1-yl)propyl))carboxamidopyridine] reads 200 °C (dec.); that for `CCC1=C(C(=O)NCCCN2CCC(c3ccccc3)(c3ccccc3)CC2)C(c2ccc(N)cc2)C(C(=O)OC)=C(C)N1` (stereo not drawn) (as salt: salt) [Example 114, 4-(4-Aminophenyl)-2-ethyl-1,4-dihydro-5-methoxycarbonyl-6-methyl-3-(N-(3-(4,4-diphenylpiperidin-1-yl)propyl)carboxamido)-pyridine], 169 to 172 °C (dec.); that for `COC(=O)C1=C(C)N(C)C(C)=C(C(=O)OCCCN2CCC(c3ccccc3)(c3ccccc3)CC2)C1c1ccc([N+](=O)[O-])cc1.Cl.O` (stereo not drawn) (hydrate or solvate) [Example 92, 1,4-Dihydro-5-methoxycarbonyl-1,2,6-trimethyl-4-(4-nitrophenyl)-3-[3-(4,4-diphenylpiperidin-1-yl)propoxy]carbonylpyridine hydrochloride hydrate], 127 to 128 °C. The same measure, in the same setting: the result for `CCC1=C(C(=O)OCCC#N)C(c2ccc([N+](=O)[O-])cc2)C(C(=O)NCCCN2CCC(c3ccccc3)(c3ccccc3)CC2)=C(COC)N1` (stereo not drawn) (hydrate or solvate) [Example 135] reads 120 to 125 °C; that for `COC(=O)C1=C(C)NC(C)=C(C(=O)NCCCN2CCC(c3ccccc3)CC2)C1c1ccc([N+](=O)[O-])cc1` (racemic) (as salt: hydrochloride) (hydrate or solvate) [(±)-45, (±)-1,4-Dihydro-3-methoxycarbonyl-2,6-dimethyl-4-(4-nitrophenyl)-5-{N-[3-(4-phenylpiperidin-1-yl)propyl]}carboxamidopyridine hydrochloride hemihydrate], 160 °C; that for `CCC1=C(C(N)=O)C(c2ccc([N+](=O)[O-])cc2)C(C(=O)NCCCN2CCC(C#N)(c3ccccc3)CC2)=C(CC)N1` (racemic) (as salt: hydrochloride) (hydrate or solvate) [(±)-102, 5-Carboxamido-3-{N-[(4-cyano-4-phenylpiperidin-1-ly)propyl]carboxamido-2,6-diethyl-1,4-dihydro-4-(4-nitrophenyl)pyridine hydrochloride hydrate], 230 °C (dec.). In turn, `CCOC(=O)C1(c2ccccc2)CCN(CCCNC(=O)C2=C(C)NC(C)=C(C(=O)NC)C2c2ccc([N+](=O)[O-])cc2)CC1` (stereo not drawn) [Example 188, 1,4-Dihydro-2,6-dimethyl-3-{N-[3-(4-ethoxycarbonyl-4-phenyl-piperidin-1-yl)propyl]}carboxamide-5-(N-methyl)carboxam ido-4-(4nitrophenyl)pyridine] showed a melting point of 112 to 113 °C. On the same count and under the same terms, the result for `COC(=O)C1(c2ccccc2)CCN(CCCNC(=O)C2=C(C)NC(C)=C(C(=O)OCCC#N)C2c2ccc([N+](=O)[O-])cc2)CC1` (stereo not drawn) [Example 203, 5-(2-Cyanoethoxycarbonyl)-1,4-dihydro-2,6-dimethyl-3-{N-[3-(4-methoxycarbonyl-4-phenylpiperidin-1-yl)propyl]}carbo xamido-4-(4-nitrophenyl)pyridine] reads 73 to 74 °C; that for `CCNC(=O)C1=C(C)NC(C)=C(C(=O)NCCCN2CCC(C(=O)OC)(c3ccccc3)CC2)C1c1ccc([N+](=O)[O-])cc1` (stereo not drawn) [Example 205, 1,4-Dihydro-2,6-dimethyl-5-(N-ethyl)carboxamido-3-{N-[3-(4-methoxycarbonyl-4-phenylpiperidin-1-yl)propyl]}carboxamido-4-(4-nitrophenyl)pyridine], 117 to 118 °C.

For the next data set, the target named is T1, α1A Human Adrenergic Receptor (Homo sapiens, UniProt P25100).
T1 construct: The entire coding region of α1A (1719 bp); expressed in transfected cells
T1 sequence (P25100 1-572): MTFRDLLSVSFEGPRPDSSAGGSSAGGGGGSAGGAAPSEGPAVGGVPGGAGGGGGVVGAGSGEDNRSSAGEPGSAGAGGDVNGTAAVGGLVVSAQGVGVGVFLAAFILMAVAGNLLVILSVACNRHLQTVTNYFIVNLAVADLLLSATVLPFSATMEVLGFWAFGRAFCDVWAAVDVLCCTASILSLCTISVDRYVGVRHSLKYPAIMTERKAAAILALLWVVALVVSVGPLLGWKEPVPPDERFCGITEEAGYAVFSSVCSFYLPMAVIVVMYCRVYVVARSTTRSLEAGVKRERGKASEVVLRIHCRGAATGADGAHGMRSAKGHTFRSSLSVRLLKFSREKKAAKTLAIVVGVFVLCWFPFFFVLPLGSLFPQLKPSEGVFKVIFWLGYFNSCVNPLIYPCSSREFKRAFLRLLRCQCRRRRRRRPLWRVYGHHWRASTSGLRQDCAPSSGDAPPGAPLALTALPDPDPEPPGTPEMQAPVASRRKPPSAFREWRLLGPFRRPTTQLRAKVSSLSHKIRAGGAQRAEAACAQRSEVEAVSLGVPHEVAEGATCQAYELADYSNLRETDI
The data set is described as follows: Radioligand binding, [3H]prazosin, cloned human α1A adrenergic receptor. The conditions noted are these: [3H]prazosin, cloned human receptor, LM(tk-) cell membranes; mean; read-out: PKi alpha-1 1a (converted). As for the experimental part:
The protocols for these experiments are given below.
These cell lines were prepared by transfecting the cloned cDNA or cloned genomic DNA or constructs containing both genomic DNA and cDNA encoding the human α-adrenergic receptors as follows:
α1A Human Adrenergic Receptor:
The cells were grown, in a controlled environment (37° C., 5% CO2), as monolayers in Dulbecco's modified Eagle's Medium (GIBCO, Grand Island, N.Y.) containing 25 mM glucose and supplemented with 10% bovine calf serum, 100 units/ml penicillin g, and 100 μg/ml streptomycin sulfate.
Radioligand Binding Assays:
Transfected cells from culture flasks were scraped into 5 ml of 5 mM Tris-HCl, 5 mM EDTA, pH 7.5, and lysed by sonication. The cell lysates were centrifuged at 1000 rpm for 5 min at 4° C., and the supernatant was centrifuged at 30,000× g for 20 min at 4° C. The pellet was suspended in 50 mM Tris-HCl, 1 mM MgCl2, and 0.1% ascorbic acid at pH 7.5. Binding of the α1 antagonist [^3H]prazosin (0.5 nM, specific activity 76.2 Ci/mmol) to membrane preparations of LM(tk−) cells was done in a final volume of 0.25 ml and incubated at 37° C. for 20 min. Nonspecific binding was determined in the presence of 10 μM phentolamine. The reaction was stopped by filtration through GF/B filters using a cell harvester.
In the case of `COC(=O)C1(c2ccccc2)CCN(CCCNC(=O)C2=C(C)NC(C)=C(C(=O)OCCC#N)C2c2ccc([N+](=O)[O-])cc2)CC1` (stereo not drawn) [Example 203, 5-(2-Cyanoethoxycarbonyl)-1,4-dihydro-2,6-dimethyl-3-{N-[3-(4-methoxycarbonyl-4-phenylpiperidin-1-yl)propyl]}carbo xamido-4-(4-nitrophenyl)pyridine], the Ki was 759 nM.

In general, melting point refers to the temperature, or range, at which the solid turns liquid.

The record behind these values is US6608086B2, “Dihydropyridines and new uses thereof” (Synaptic Pharmaceutical Corporation, priority 1993, dated 2003).
